These results are taken from PMC2837273 (Drug metabolism and disposition: the biological fate of …, 2008).

“Also recorded” adds a separate entry of the source. Where two headings read alike, the source gives them in different places.

One data set deals with human ABCG2. The following applies: read-out: IC50 on efflux or accumulation; cell lines transfected with human ABCG2; ref Ahmed-Belkacem et al., 2005; Pan et al., 2007; cited from earlier work.
The target of data set [1] is T1, rat Abcg2 (Rattus norvegicus, UniProt Q80W57).
T1 sequence (Q80W57 1-657): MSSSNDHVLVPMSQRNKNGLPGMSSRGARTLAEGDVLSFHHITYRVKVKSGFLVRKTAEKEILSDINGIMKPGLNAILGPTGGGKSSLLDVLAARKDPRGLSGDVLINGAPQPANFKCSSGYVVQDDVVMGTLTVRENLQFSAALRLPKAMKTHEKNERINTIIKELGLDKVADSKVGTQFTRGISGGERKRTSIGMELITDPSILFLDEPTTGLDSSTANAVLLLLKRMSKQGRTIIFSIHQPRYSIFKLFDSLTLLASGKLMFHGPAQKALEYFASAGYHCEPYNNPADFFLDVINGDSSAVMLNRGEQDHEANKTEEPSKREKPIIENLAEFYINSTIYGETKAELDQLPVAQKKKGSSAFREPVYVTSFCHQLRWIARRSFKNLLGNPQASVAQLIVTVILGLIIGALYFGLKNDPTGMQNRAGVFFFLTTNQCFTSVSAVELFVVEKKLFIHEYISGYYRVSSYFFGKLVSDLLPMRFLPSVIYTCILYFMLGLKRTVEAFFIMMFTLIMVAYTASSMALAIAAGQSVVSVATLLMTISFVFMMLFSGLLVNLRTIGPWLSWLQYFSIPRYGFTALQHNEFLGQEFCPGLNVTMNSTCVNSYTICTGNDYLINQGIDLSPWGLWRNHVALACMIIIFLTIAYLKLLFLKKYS
The experiment in a line: Hoechst 33342 accumulation in MDCKII-rAbcg2 cells. The following applies: 1 μM GF120918, 10μM Hoechst 33342. The format is cell-based.

For data set [2], the system named is Abcg2. The experiment in a line: GF120918 "chemical knockout" of nitrofurantoin transfer into rat milk. In kind it is in vivo, Sprague Dawley rat. The following applies: GF120918 10 mg/kg treated group vs control; lactating rats.
For data set [3], the target named is T1, rat Abcg2. In kind it is cell-based.
Data set [4] concerns Abcg2. The following applies: wild-type and P-gp deficient mice; ref Cisternino et al., 2004; cited from earlier work.
Another data set concerns Bcrp1. The following applies: ref Merino et al., 2005, cited from earlier work.
The test system of the next data set is human BCRP. The following applies: polarized cell lines; ref Merino et al., 2005; cited from earlier work.
In another data set the test system is murine Bcrp1. The following applies: polarized cell lines; ref Merino et al., 2005; cited from earlier work.
Where [5] appears, read: MDCKII-rat Abcg2 vs MDCKII-empty cells, 10μM nitrofurantoin.

For `COc1cc2c(cc1OC)CN(CCc1ccc(NC(=O)c3cccc4c(=O)c5cccc(OC)c5[nH]c34)cc1)CC2` [GF120918, N-(4-[2-(1,2,3,4-tetrahydro-6,7-dimethoxy-2-isoquinolinyl)ethyl]-phenyl)-9,10-dihydro-5-methoxy-9-oxo-4-acridine carboxamide], the IC50 in the data set on human ABCG2 is approximately 300 nM. For the same compound, on rat Abcg2 [1], the “effect on Hoechst 33342 efflux phenotype (reduced accumulation)” value was “reversed; also recorded: effectively inhibit”. In addition, the “reduction in the M/S of nitrofurantoin” value in the data set on Abcg2 [2] was determined as 93%. The “effect on nitrofurantoin transport/efflux by rat Abcg2” value on rat Abcg2 [3] (1 μM GF120918, MDCKII-rAbcg2 cells) is given as “largely reversed; also recorded: effectively inhibit”.

`O=C1c2c(O)ccc(O)c2C(=O)c2c(NCCNCCO)ccc(NCCNCCO)c21` [mitoxantrone]: in the data set with Abcg2 [4], the “accumulation in the presence of GF120918” value is recorded as “significantly increased”.

For the compound `O=C1CN(/N=C/c2ccc([N+](=O)[O-])o2)C(=O)N1` [nitrofurantoin, Nitrofurantoin], the “area under the concentration time curve, Bcrp1 knockout vs wild-type mice” value in the data set with Bcrp1 (intravenous administration) is 2 fold. In addition, the “area under the concentration time curve, Bcrp1 knockout vs wild-type mice” value with Bcrp1 (oral administration) is recorded as 4 fold. In addition, the “transport by human BCRP” value in the data set on human BCRP is reported as “efficiently transported”. Also, at rat Abcg2 [3] (setting [5]), the “decrease in basolateral transport” value is on record as 55% and the “increase in apical directed transport” value is listed as 7.5 fold. Further, the “transport by murine Bcrp1” value with murine Bcrp1 was “efficiently transported”.

For orientation: IC50 means the point on the concentration scale where inhibition reaches its midpoint.
